What is called melting point is the temperature, or range, at which the solid turns liquid.

For seven compounds, melting point results are on record in US7012078B2, “2-aminopyridines containing fused ring substituents” (Pfizer Inc., priority 1997, dated 2006).

Structures are written as SMILES. Where a name gives a salt, the structure may show the parent alone.

Take `Nc1cccc(-c2ccc(OC3CN(Cc4cccnc4)C3)c3ccccc23)n1` (as salt: hydrochloride) [Example 72, 6-[4-(1-Pyridin-3-ylmethyl-azetidin-3-yloxy)-naphthalen-1-yl]-pyridin-2-ylamine]: the melting point was in the range of 150 to 180 °C.

On to `Nc1cccc(-c2ccc(OCC3CNC3)c3ccccc23)n1` (as salt: hydrochloride) [Example 73, 6-[4-(Azetidin-3-ylmethoxy)-naphthalen-1-yl]-pyridin-2-ylamine], for which the melting point lay within 88 to 110 °C.

`Nc1cccc(-c2ccc(OC3CN(Cc4ccccn4)C3)c3ccccc23)n1` (as salt: hydrochloride) [Example 74, 6-[4-(1-Pyridin-2-ylmethyl-azetidin-3-yloxy)-naphthalen-1-yl]-pyridin-2-ylamine] had a melting point of 97 to 120 °C.

Compound `CN1CC(Oc2ccc(-c3cccc(N)n3)c3ccccc23)C1` (as salt: hydrochloride) [Example 75, 6-[4-(N-methyl-azetidin-3-yloxy)-naphthalen-1-yl]-pyridin-2-ylamine] yielded a melting point of 240 to 255 °C.

In the case of `CC(C)N1CC(Oc2ccc(-c3cccc(N)n3)c3ccccc23)C1` (as salt: hydrochloride) [Example 76, 6-[4-(N-Isopropyl-azetidin-3-yloxy)-naphthalen-1-yl]-pyridin-2-ylamine], the melting point is 120 to 135 °C.

The compound `Nc1cccc(-c2ccc(OCC3CCN3)c3ccccc23)n1` (stereo not shown) (as salt: salt) [Example 71, 6-[4-(Azetidin-2-ylmethoxy)-naphthalen-1-yl]-pyridin-2-ylamine] registered a melting point of 135 to 150 °C.

Compound `COc1cc2c(cc1OC)CN(CCc1ccc(-c3cccc(N)n3)c3ccccc13)CC2` [Example 4, 6-{4-[2-(6,7-Dimethoxy-3,4-dihydro-1H-isoquinolin-2-yl)-ethyl]-naphthalen-1-yl}-pyridin-2-ylamine] yielded a melting point of 172 to 176 °C.
